According to PMC12287680, “Efficient Acyloxymethylation of Psilocin and Other Tryptamines Yielding ACOM Prodrugs for Psychedelic‐Assisted Therapy” (Archiv Der Pharmazie, 2025):
Where a name gives a salt, the structure may show the parent alone. Marks after values point to notes of the source that are not given here.

How the values were obtained:
[1] = Half-lives in PBS at 80°C (nonspecific hydrolysis); type: physicochemical; conditions: for half-life at 50 µM: pH 7.3, PBS, 80°C, 5·10^−5 M, footnote: no replicates; for stability in buffer compared with plasma: buffer at 80°C versus plasma at 37°C, same concentration
Protocol: As a measure of the drug release rate in the systemic blood circulation, we determined the half‐lives of 15, 16, and 23–26 in pooled human plasma. […] This illustrates that the drug release kinetics in human plasma are highly dependent upon the chosen acyl residue, which allows for tailoring the prodrug's pharmacokinetic profile to the therapeutic requirements. To assess the contribution of nonspecific hydrolysis to the observed kinetics, we incubated the prodrugs at the same concentration in the buffer used to dilute the plasma samples.
(§1) The kinetic studies were carried out by following the loss of substrate under the indicated conditions using HPLC‐UV. Pooled human plasma was obtained commercially (Biowest, France), while human saliva was freshly collected with the written informed consent of the saliva donors. In a typical run, the reaction was initiated by adding the prewarmed medium to a prewarmed aliquot of a 5 mM stock solution of the analyte in DMSO, resulting in a final concentration of 5·10^−5 M. A volume of 100 µL samples of the reaction mixture were taken at suitable intervals, and the reaction was either stopped by cooling to –20°C (PBS) or by protein precipitation using 2:1 (v/v) acetonitrile (saliva, plasma). Precipitates were removed by centrifugation and decantation prior to HPLC analysis. Pseudo‐first‐order rate constants for the observed degradation were determined from the slope of linear plots of ln(peak area) versus time. More detailed descriptions are provided in the Supporting Information.

[2] = Half-lives in human saliva at 37°C; type: in vitro ADME; conditions: fresh resting whole human saliva, mean of three measurements with fresh samples of three individuals, 5·10^−5 M, read-out: Half‐lives t 1/2 at 37°C in human Saliva
Protocol: Finally, we studied the stability of the compounds in human saliva. […] In line with the literature, the stability of a given compound in human saliva varied considerably between subjects (Figure 7).
as §1

[3] = parameters: method as in earlier work; conditions: rats, ref 10b, cited from earlier work
[4] = Half-lives in pooled human plasma at 37°C; type: in vitro ADME; conditions: for half-lives t1/2 in human plasma (v/v) at 37°C: 100% plasma, [prodrug]0 =50 µM
Protocol: As a measure of the drug release rate in the systemic blood circulation, we determined the half‐lives of 15, 16, and 23–26 in pooled human plasma. […] To assess the contribution of nonspecific hydrolysis to the observed kinetics, we incubated the prodrugs at the same concentration in the buffer used to dilute the plasma samples.
as §1
^a The release kinetics of the prodrugs were evaluated in vitro in analogy to the precedent literature.^[1] […] Pooled human blood plasma (Biowest, France) and sterile Dulbecco’s phosphate buffered saline (PBS) pH 7.3 (Sigma-Aldrich, Germany) were used for all experiments. In short, prewarmed (37°C) human plasma and prewarmed (37°C) prodrug (5 mM stock in DMSO) were gently mixed, which afforded a 50 µM solution of the prodrug in human plasma. Incubation was continued at 37°C, and 100 µL samples of the mixture were taken at appropriate time intervals. The samples were immediately quenched with acetonitrile (2:1), centrifuged, decanted, and analyzed via HPLC-UV. Half-lives were determined assuming first-order kinetics; specific values are the mean of triplicates ± standard deviation. For more details, please refer to the SI.

[5] = Passive membrane permeability across an artificial membrane; type: in vitro ADME; conditions: for Papp: PAMPA, pH 7.4, read-out: Passive membrane permeability Pe
Excerpt: As expected, all tested prodrugs have a high propensity for passive passage across an artificial membrane at pH 7.4 (≥ 8·10^−6 cm/s). […] The loss of the intramolecular hydrogen bond between the phenolic hydroxy group and the tertiary amino group upon O‐substitution appears to decrease the membrane permeability of the prodrugs in comparison to the parent drug. This effect is apparently not entirely compensated by the ACOM promoiety, which in itself is not completely apolar due to the acetal and ester oxygens. The intramolecular hydrogen bond may reduce the polarity of 4‐hydroxytryptamines by introducing a conformational restraint and thereby favoring conformations with a smaller polar surface area and a lower dipole moment and by decreasing hydrogen bonding to the aqueous solvent. In addition, the intramolecular hydrogen bond in 4‐hydroxytryptamines lowers the pK a of the amine and therefore shifts the protonation equilibrium toward the neutral species. The higher proportion of the uncharged species in 4‐hydroxytryptamines compared with their O‐substituted congeners further increases the difference in passive membrane permeability.

[6] = pH 7.4; cited from earlier work
[7] = in DMSO; cited from earlier work
[8] = cited from earlier work
[9] = 100% (undiluted) pooled human plasma, 37°C, 100% pooled human plasma, 5·10^−5 M
[10] = 10% pooled human plasma in PBS, pH 7.3, 37°C, 10% pooled human plasma diluted with PBS, 5·10^−5 M
[11] = diluted pooled human plasma, pH 7.3, even in diluted human plasma, read-out: half‐lives in human plasma

| SMILES | half-life at 50 µM [1] [min] | half-life at 50 µM [2] [min] | half-life at 50 µM [4, 9] [min] | half-lives t1/2 in human plasma (v/v) at 37°C ([4]; 37°C) | drug release in undiluted human plasma during the observation period ([4]; 37°C) | Papp [5] [×10⁻⁶ cm/s] | Passive membrane permeability R (%) (mass retention) ([5]; pH 7.4) | further results |
| --- | --- | --- | --- | --- | --- | --- | --- | --- |
| CC(=O)Oc1ccccc1C(=O)O [ASA, Acetylsalicylic acid, reference compound] | 27.9 ± 0.3 | > 60 | – | – | – | – | – | – |
| CN(C)CCc1c[nH]c2cccc(OCOC(=O)C(C)(C)C)c12 [Compound 2] | – | – | – | – | – | – | – | detected systemic psilocin level ([3]; peroral dosing): relatively low; prodrug behaviour upon peroral dosing [3]: acts as a psilocin prodrug |
| CCN(C)CCc1cn(C(=O)OCc2ccccc2)c2cccc(O)c12 [Compound 15] | 136 ± 4 | – | > 5700 | > 5700 (100%) min | Neither the N‐carbamates 15 and 16 nor the sterically hindered pivaloyloxymethyl ethers 23 and 25 showed significant drug release | – | – | – |
| CN(C)CCc1cn(C(=O)OCc2ccccc2)c2cccc(O)c12 [Compound 16, 1‐Benzyloxycarbonyl‐4‐Hydroxy‐N,N‐Dimethyltryptamine] | 184 ± 5 | – | > 5700 | > 5700 (100%) min | Neither the N‐carbamates 15 and 16 nor the sterically hindered pivaloyloxymethyl ethers 23 and 25 showed significant drug release | – | – | – |
| CCN(C)CCc1c[nH]c2cccc(OCOC(=O)C(C)(C)C)c12 [Compound 23] | 534 ± 12 | < 20 | > 240 | > 240 (100%) min | Neither the N‐carbamates 15 and 16 nor the sterically hindered pivaloyloxymethyl ethers 23 and 25 showed significant drug release | 9.7 ± 0.6 | 2% | – |
| CCCC(=O)OCOc1cccc2[nH]cc(CCN(C)CC)c12 [Compound 24] | 73.3 ± 1.2 | < 10 | – | – | – | 8 ± 0.3 | 6% | stability in buffer compared with plasma [1]: significantly more stable in buffer than in plasma; half-life at 50 µM [4, 10]: 4.2 ± 0.1 min; half-life at 50 µM [4, 11]: < 5 min |
| CN(C)CCc1c[nH]c2cccc(OCOC(=O)C(C)(C)C)c12 [Compound 25] | 458 ± 23 | < 20 | > 240 | > 240 (100%)^b min | Neither the N‐carbamates 15 and 16 nor the sterically hindered pivaloyloxymethyl ethers 23 and 25 showed significant drug release | 9.1 ± 0.5 | 4% | chemical and plasma stability, in words ([4]; in vitro): high chemical and plasma stability |
| CCCC(=O)OCOc1cccc2[nH]cc(CCN(C)C)c12 [Compound 26, 4‐n‐Butanoyloxymethyloxy‐N,N‐Dimethyltryptammonium Fumarate] | 58.6 ± 3.5 | < 10 | 0.48 ± 0.1 | – | – | 8.1 ± 0.8 | 7 ^e % | stability in buffer compared with plasma [1]: significantly more stable in buffer than in plasma; half-life at 50 µM [4, 10]: 3.5 ± 0.8 min; half-life at 50 µM [4, 11]: < 5 min |
| CCN(C)CCc1c[nH]c2cccc(O)c12 [Compound 30, reference compound] | – | – | – | – | – | – | 29% | Passive membrane permeability Pe ([5]; pH 7.4): 11 ± 1 10^−6cm/s; mass retention (R%), in words ([5]; pH 7.4): remarkably high; membrane permeability, ranking ([5]; pH 7.4, compared with the prodrugs): highest membrane permeability |
| CN(C)CCc1c[nH]c2cccc(OP(=O)(O)O)c12 [psilocybin] | – | – | – | – | – | – | – | logD7.4 [6]: −0.89 |
| CNS(=O)(=O)Cc1ccc2[nH]cc(CCN(C)C)c2c1 [sumatriptan] | – | – | – | – | – | – | – | sulfonamide pKa [7]: ~ 17.5; logP [8]: 0.93; logD7.4 [6]: −1.3 |
